Results on 23 compounds are retold here after PubChem BioAssay AID256 (DTP/NCI, 2004).

This experiment relates to CD2F1 mice, L1210 leukemia ip, survival T/C. Kind of experiment: NCI In Vivo Anticancer Drug Screen. Data for tumor model L1210 Leukemia (intraperitoneal) in CD2F1 (CDF1) mice. The settings on record: higher = longer survival. In outline: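 Antitumor effect is scored in animals hosting a serially transplanted tumor. Values compare compound-dosed animals against vehicle-only controls as a simple quotient.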

[1] abbreviates: endpoint: mean survival time, dose: 50.0 mg/kg/injection, schedule: Q01DX009 (ip), vehicle: saline with Tween-80.
Where [2] appears, read: endpoint: mean survival time, dose: 100.0 mg/kg/injection, schedule: Q01DX001 (ip), vehicle: saline with Tween-80.
[3] abbreviates: endpoint: mean survival time, dose: 200.0 mg/kg/injection, schedule: Q01DX001 (ip), vehicle: saline with Tween-80.
[4] abbreviates: endpoint: mean survival time, dose: 400.0 mg/kg/injection, schedule: Q01DX001 (ip), vehicle: saline with Tween-80.
Setting [5] is: endpoint: mean survival time, dose: 100.0 mg/kg/injection, schedule: Q01DX001 (ip), vehicle: saline.
The mark [6] stands for this setting: endpoint: mean survival time, dose: 50.0 mg/kg/injection, schedule: Q04DX003 (ip), vehicle: saline with Tween-80.
Where [7] appears, read: endpoint: mean survival time, dose: 100.0 mg/kg/injection, schedule: Q04DX003 (ip), vehicle: saline with Tween-80.
Setting [8] is: endpoint: mean survival time, dose: 200.0 mg/kg/injection, schedule: Q04DX003 (ip), vehicle: saline with Tween-80.
The mark [9] stands for this setting: endpoint: mean survival time, dose: 75.0 mg/kg/injection, schedule: Q01DX001 (ip), vehicle: other.
[10] abbreviates: endpoint: mean survival time, dose: 150.0 mg/kg/injection, schedule: Q01DX001 (ip), vehicle: other.
The mark [11] stands for this setting: endpoint: mean survival time, dose: 25.0 mg/kg/injection, schedule: Q04DX003 (ip), vehicle: saline with Tween-80.
Where [12] appears, read: endpoint: mean survival time, dose: 100.0 mg/kg/injection, schedule: Q01DX009 (ip), vehicle: saline with Tween-80.
Setting [13] is: endpoint: mean survival time, dose: 200.0 mg/kg/injection, schedule: Q01DX009 (ip), vehicle: saline with Tween-80.

Each structure is given as a SMILES string. Several values for one entry are separate records, joined by “and”; a condition that tells them apart may be missing. Equal values may be shown once. Inconclusive results and toxic doses are left out.

In the case of `CC(=O)Oc1ccc[nH]c1=O`, the T/C runs as follows: (endpoint: mean survival time, dose: 400.0 mg/kg/injection, schedule: Q01DX009 (ip), vehicle: saline) 150 % of control and 156 % of control; (endpoint: mean survival time, dose: 600.0 mg/kg/injection, schedule: Q01DX009 (ip), vehicle: saline) 100 % of control and 108 % of control; (endpoint: median survival time, dose: 16.7 mg/kg/injection, schedule: Q03HX027 (ip), vehicle: saline with Tween-80) 103 % of control; (endpoint: median survival time, dose: 33.0 mg/kg/injection, schedule: Q03HX027 (ip), vehicle: saline with Tween-80) 91 % of control and 102 % of control; (endpoint: median survival time, dose: 50.0 mg/kg/injection, schedule: Q01DX009 (ip), vehicle: saline with Tween-80) 100 % of control and 101 % of control; (endpoint: median survival time, dose: 66.7 mg/kg/injection, schedule: Q03HX027 (ip), vehicle: saline with Tween-80) 91 % of control and 93 % of control and 103 % of control. The T/C reads like this: (endpoint: median survival time, dose: 100.0 mg/kg/injection, schedule: Q01DX009 (ip), vehicle: saline with Tween-80) 100 % of control and 102 % of control and 103 % of control; (endpoint: median survival time, dose: 133.0 mg/kg/injection, schedule: Q03HX027 (ip), vehicle: saline with Tween-80) 102 % of control and 103 % of control and 106 % of control; (endpoint: median survival time, dose: 200.0 mg/kg/injection, schedule: Q01DX009 (ip), vehicle: saline with Tween-80) 103 % of control (2×) and 111 % of control; (endpoint: median survival time, dose: 266.0 mg/kg/injection, schedule: Q03HX027 (ip), vehicle: saline with Tween-80) 185 % of control.

Consider `c1ccc(C[n+]2ccccc2)cc1`, for which the T/C reads like this: (endpoint: mean survival time, dose: 12.5 mg/kg/injection, schedule: Q01DX009 (ip), vehicle: saline) 100 % of control; (endpoint: mean survival time, dose: 25.0 mg/kg/injection, schedule: Q01DX009 (ip), vehicle: saline) 100 % of control; under setting [1], 100 % of control; (endpoint: mean survival time, dose: 50.0 mg/kg/injection, schedule: Q01DX009 (ip), vehicle: saline) 106 % of control.

Take `CCCCNC(=O)Nc1ccc(Cl)cc1`: the T/C by setting is: under setting [2], 88 % of control; under setting [3], 86 % of control; under setting [4], 88 % of control.

Take `OC1CCSc2ccc3ccccc3c21` (centres undefined): the T/C under setting [2] is 108 % of control, the T/C under setting [3] is 105 % of control and the T/C under setting [4] was 103 % of control.

Take `O=c1cc(-c2ccccc2)nc2c(Cl)cc(Cl)cn12`: the T/C under setting [2] was 96 % of control, the T/C under setting [3] was 93 % of control and the T/C under setting [4] was 96 % of control.

In the case of `COc1cc2c(C(=O)O)cc(-c3ccc(Cl)cc3)nc2cc1Cl`, under setting [5], the T/C is 98 % of control.

On to `O=c1o[nH]c(-c2ccccc2)c1-c1ccccc1`, for which the T/C by setting is: under setting [6], 95 % of control; under setting [7], 98 % of control; under setting [8], 106 % of control.

As for `O=C1CSC(=S)N1/N=C/c1ccccc1Cl`, the T/C by setting is: under setting [9], 96 % of control; under setting [10], 96 % of control; (endpoint: mean survival time, dose: 300.0 mg/kg/injection, schedule: Q01DX001 (ip), vehicle: other) 94 % of control.

Turning to `COc1ccc(C(CC(=O)c2ccccc2)CC(=O)c2ccccc2)cc1`, the T/C was 94 % of control (endpoint: mean survival time, dose: 25.0 mg/kg/injection, schedule: Q01DX009 (ip), vehicle: saline with Tween-80); 101 % of control under setting [11]; 96 % of control under setting [1]; 93 % of control under setting [6]; 87 % of control under setting [7].

Take `O=C1CCC(=O)N1C1C=CC=CC=C1`: the T/C was 98 % of control (endpoint: mean survival time, dose: 50.0 mg/kg/injection, schedule: Q04DX003 (ip), vehicle: acetone) and 107 % of control (endpoint: mean survival time, dose: 100.0 mg/kg/injection, schedule: Q04DX003 (ip), vehicle: acetone).

As for `O=P1(N(CCCl)CCCl)OCCC(c2ccccc2)N1Cl` (centres undefined), the T/C runs as follows: (endpoint: mean survival time, dose: 43.75 mg/kg/injection, schedule: Q01DX001 (ip), vehicle: distilled water + Tween-80) 106 % of control; (endpoint: mean survival time, dose: 87.5 mg/kg/injection, schedule: Q01DX001 (ip), vehicle: distilled water + Tween-80) 103 % of control; (endpoint: mean survival time, dose: 175.0 mg/kg/injection, schedule: Q01DX001 (ip), vehicle: distilled water + Tween-80) 106 % of control; (endpoint: mean survival time, dose: 350.0 mg/kg/injection, schedule: Q01DX001 (ip), vehicle: distilled water + Tween-80) 110 % of control.

Regarding `O=[N+]([O-])c1ccc2c(c1)sc1cc([N+](=O)[O-])c(Br)cc12`, the T/C by setting is: (endpoint: mean survival time, dose: 100.0 mg/kg/injection, schedule: Q04DX002 (ip), vehicle: saline with Tween-80) 97 % of control; (endpoint: mean survival time, dose: 200.0 mg/kg/injection, schedule: Q04DX002 (ip), vehicle: saline with Tween-80) 94 % of control; (endpoint: mean survival time, dose: 400.0 mg/kg/injection, schedule: Q04DX002 (ip), vehicle: saline with Tween-80) 112 % of control.

For the compound `CC(C)(C)OC(=O)NC(Cc1c[nH]c2ccccc12)C(=O)ON1C(=O)CCC1=O` (centres undefined), the T/C by setting is: under setting [7], 95 % of control; under setting [8], 95 % of control.

As to `Cc1cc2n[se]nc2cc1C`, the T/C is 94 % of control (endpoint: median survival time, dose: 3.12 mg/kg/injection, schedule: Q01DX009 (ip), vehicle: Klucel (hydroxypropylcellulose) (HPC)); 95 % of control (endpoint: median survival time, dose: 6.25 mg/kg/injection, schedule: Q01DX009 (ip), vehicle: Klucel (hydroxypropylcellulose) (HPC)); 98 % of control (endpoint: median survival time, dose: 12.5 mg/kg/injection, schedule: Q01DX009 (ip), vehicle: Klucel (hydroxypropylcellulose) (HPC)); 101 % of control (endpoint: median survival time, dose: 25.0 mg/kg/injection, schedule: Q01DX009 (ip), vehicle: Klucel (hydroxypropylcellulose) (HPC)).

On to `Cc1ccc2nc(-c3ccc4nc(-c5ccc(N)cc5)sc4c3)sc2c1`, for which the T/C by setting is: under setting [1], 94 % of control; under setting [12], 97 % of control; under setting [13], 94 % of control.

`CC(=O)Nc1ccc(-c2c(N)ncc3ccccc23)cc1`: the T/C is, setting by setting: (endpoint: mean survival time, dose: 50.0 mg/kg/injection, schedule: Q04DX003 (ip), vehicle: other) 94 % of control; (endpoint: mean survival time, dose: 100.0 mg/kg/injection, schedule: Q04DX003 (ip), vehicle: other) 94 % of control; (endpoint: mean survival time, dose: 200.0 mg/kg/injection, schedule: Q04DX003 (ip), vehicle: other) 96 % of control; (endpoint: mean survival time, dose: 400.0 mg/kg/injection, schedule: Q04DX003 (ip), vehicle: other) 100 % of control.

`COc1cc2c3c(c1)/C(=N\NC(N)=S)CCN3CCC2`: the T/C was 93 % of control under setting [2], 105 % of control under setting [3] and 93 % of control under setting [4].

With `CNC(Cc1ccccc1)c1ccccc1` (centres undefined), the T/C runs as follows: under setting [11], 91 % of control; under setting [6], 93 % of control; under setting [7], 95 % of control and 97 % of control.

With `CCCCCCCCCCC(CCCCCCCCCC)Cc1ccccc1`, the T/C under setting [5] was 98 % of control; the T/C (endpoint: mean survival time, dose: 200.0 mg/kg/injection, schedule: Q01DX001 (ip), vehicle: saline) was 98 % of control; the T/C (endpoint: mean survival time, dose: 400.0 mg/kg/injection, schedule: Q01DX001 (ip), vehicle: saline) was 93 % of control.

As for `CC1(C)OC(C(O)COC(=O)c2ccccc2)C(C(O)COC(=O)c2ccccc2)O1` (centres undefined), the T/C by setting is: (endpoint: mean survival time, dose: 50.0 mg/kg/injection, schedule: Q01DX009 (ip), vehicle: Klucel (hydroxypropylcellulose) (HPC)) 98 % of control; (endpoint: mean survival time, dose: 100.0 mg/kg/injection, schedule: Q01DX009 (ip), vehicle: Klucel (hydroxypropylcellulose) (HPC)) 98 % of control; (endpoint: mean survival time, dose: 200.0 mg/kg/injection, schedule: Q01DX009 (ip), vehicle: Klucel (hydroxypropylcellulose) (HPC)) 102 % of control.

As to `FC(F)(F)c1[nH]nc(-c2ccc(Cl)cc2)c1N=NN1CCOCC1`, the T/C runs as follows: under setting [9], 91 % of control; under setting [10], 95 % of control.

Take `O=C1CCCN1.O=C1CCCN1.[Br][Co][Br]`: the T/C runs as follows: (endpoint: mean survival time, dose: 37.5 mg/kg/injection, schedule: Q01DX009 (ip), vehicle: saline) 102 % of control; (endpoint: mean survival time, dose: 75.0 mg/kg/injection, schedule: Q01DX009 (ip), vehicle: saline) 107 % of control.

Turning to `CC(=O)Nc1c(N)nc(Nc2nc3ccccc3[nH]2)[nH]c1=O`, the T/C is, setting by setting: under setting [12], 93 % of control; under setting [7], 97 % of control; under setting [13], 95 % of control; under setting [8], 96 % of control; (endpoint: mean survival time, dose: 400.0 mg/kg/injection, schedule: Q01DX009 (ip), vehicle: saline with Tween-80) 93 % of control; (endpoint: mean survival time, dose: 400.0 mg/kg/injection, schedule: Q04DX003 (ip), vehicle: saline with Tween-80) 87 % of control.
